Reference: ChEMBL document CHEMBL4251585, “Accelerated skin wound healing by selective 11β-Hydroxylase (CYP11B1) inhibitors” (Eur J Med Chem, 2018)

Assays:
[1] = target: T1, Cytochrome P450 11B1, mitochondrial (Homo sapiens, UniProt P15538); test: Inhibition of human CYP11B1 expressed in hamster V79MZ cells using [1,2-3H]-11-deoxycorticosterone as substrate after 6 hrs by HPTLC analysis; type: cell-based
T1 sequence (P15538 whole entry): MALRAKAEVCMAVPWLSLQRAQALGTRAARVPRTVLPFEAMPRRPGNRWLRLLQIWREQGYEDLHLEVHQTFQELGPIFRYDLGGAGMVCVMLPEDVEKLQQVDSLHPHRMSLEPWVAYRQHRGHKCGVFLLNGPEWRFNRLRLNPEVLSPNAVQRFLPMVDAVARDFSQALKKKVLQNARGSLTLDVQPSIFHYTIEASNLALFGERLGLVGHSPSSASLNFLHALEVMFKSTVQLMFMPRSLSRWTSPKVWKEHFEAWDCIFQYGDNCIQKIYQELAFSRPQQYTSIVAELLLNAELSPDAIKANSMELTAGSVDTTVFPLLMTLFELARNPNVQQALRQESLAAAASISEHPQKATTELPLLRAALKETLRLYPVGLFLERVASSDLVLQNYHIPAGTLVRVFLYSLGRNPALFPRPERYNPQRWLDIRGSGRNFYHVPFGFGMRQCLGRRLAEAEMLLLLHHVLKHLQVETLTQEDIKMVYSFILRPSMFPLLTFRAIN

CYP19A1 (aromatase) = target: T2, CYP19A1 (aromatase) (Homo sapiens, UniProt P11511); test: Inhibition of human placental microsomal CYP19A1 at 2 uM using [1beta-3H]androstenedione after 21 mins by liquid scintillation spectrometry; type: ADME; conditions: placental microsomes, probe [1beta-3H]androstenedione
T2 sequence (P11511 whole entry): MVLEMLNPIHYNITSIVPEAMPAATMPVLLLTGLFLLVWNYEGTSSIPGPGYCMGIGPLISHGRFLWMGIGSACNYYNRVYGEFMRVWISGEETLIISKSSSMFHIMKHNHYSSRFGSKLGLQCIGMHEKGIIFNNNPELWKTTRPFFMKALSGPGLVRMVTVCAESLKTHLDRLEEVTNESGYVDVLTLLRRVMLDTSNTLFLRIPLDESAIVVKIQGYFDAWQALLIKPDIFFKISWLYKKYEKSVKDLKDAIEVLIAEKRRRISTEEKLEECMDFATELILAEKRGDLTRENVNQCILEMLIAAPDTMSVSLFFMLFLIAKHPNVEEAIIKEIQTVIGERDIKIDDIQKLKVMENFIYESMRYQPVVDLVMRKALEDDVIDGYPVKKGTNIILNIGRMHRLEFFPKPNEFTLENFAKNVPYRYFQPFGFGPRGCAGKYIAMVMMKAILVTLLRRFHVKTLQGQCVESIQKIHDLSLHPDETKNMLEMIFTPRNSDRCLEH

[2] = Half life in human liver S9 fraction at 1 uM up to 60 mins in presence of NADPH/UDPGA by LC-MS/MS analysis; type: ADME, subcellular
CYP17A1 = target: T3, CYP17A1 (Homo sapiens, UniProt P05093); test: Inhibition of human CYP17A1 expressed in Escherichia coli XL1 at 2 uM using [3H]-progesterone as substrate preincubated with substrate for 5 mins measured after 45 mins by HPLC analysis; type: ADME; conditions: human CYP17A1 expressed in Escherichia coli XL1, probe [3H]-progesterone
T3 sequence (P05093 whole entry): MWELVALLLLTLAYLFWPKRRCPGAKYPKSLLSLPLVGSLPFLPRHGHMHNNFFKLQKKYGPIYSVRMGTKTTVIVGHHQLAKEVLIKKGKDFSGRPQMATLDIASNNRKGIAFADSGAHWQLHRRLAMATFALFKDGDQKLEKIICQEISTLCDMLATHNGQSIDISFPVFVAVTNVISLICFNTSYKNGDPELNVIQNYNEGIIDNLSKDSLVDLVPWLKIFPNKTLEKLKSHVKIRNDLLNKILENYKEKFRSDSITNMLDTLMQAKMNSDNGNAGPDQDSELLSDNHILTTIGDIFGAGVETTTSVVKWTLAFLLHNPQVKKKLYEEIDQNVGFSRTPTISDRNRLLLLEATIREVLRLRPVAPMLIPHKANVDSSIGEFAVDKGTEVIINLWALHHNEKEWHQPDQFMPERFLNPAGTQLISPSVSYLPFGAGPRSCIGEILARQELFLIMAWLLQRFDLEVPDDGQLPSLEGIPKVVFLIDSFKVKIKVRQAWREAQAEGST

[3] = target: T4, 11-beta-hydroxysteroid dehydrogenase type 2 (Homo sapiens, UniProt P80365); test: Inhibition of human 11beta-HSD2 expressed in HEK293 cell lysates at 10 uM using [1,2,6,7-3H]-cortisol as substrate preincubated for 10 mins followed by substrate addition in presence of NAD by scintillation counting relative to control; parameters: species or system Lysate
T4 sequence (P80365 whole entry): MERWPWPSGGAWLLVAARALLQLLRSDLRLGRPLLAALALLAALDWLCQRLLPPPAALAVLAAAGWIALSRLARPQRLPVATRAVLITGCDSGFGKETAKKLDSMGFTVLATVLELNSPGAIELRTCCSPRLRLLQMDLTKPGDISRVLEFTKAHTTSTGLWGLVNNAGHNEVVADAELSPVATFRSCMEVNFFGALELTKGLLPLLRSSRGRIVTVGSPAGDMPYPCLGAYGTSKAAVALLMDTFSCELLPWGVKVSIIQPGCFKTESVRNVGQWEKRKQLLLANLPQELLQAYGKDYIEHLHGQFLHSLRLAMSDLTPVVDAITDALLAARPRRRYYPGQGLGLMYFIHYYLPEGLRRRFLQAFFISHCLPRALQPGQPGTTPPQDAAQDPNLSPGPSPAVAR

[4] = target: T5, 11-beta-hydroxysteroid dehydrogenase 1 (Homo sapiens, UniProt P28845); test: Inhibition of human 11beta-HSD1 expressed in HEK293 cell lysate using [1,2-3H]-cortisone as substrate preincubated for 10 mins followed by substrate addition in presence of NADPH by scintillation counting
Target sequence in this assay (P28845 whole entry): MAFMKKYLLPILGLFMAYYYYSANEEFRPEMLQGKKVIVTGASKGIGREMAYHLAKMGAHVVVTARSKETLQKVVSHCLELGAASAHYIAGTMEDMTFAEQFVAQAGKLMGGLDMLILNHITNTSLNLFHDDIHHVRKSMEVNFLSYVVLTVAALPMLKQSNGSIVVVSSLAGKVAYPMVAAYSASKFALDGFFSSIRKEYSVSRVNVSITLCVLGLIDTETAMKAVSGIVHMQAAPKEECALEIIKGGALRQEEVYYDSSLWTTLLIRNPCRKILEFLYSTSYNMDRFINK

[5] = target: T5, 11-beta-hydroxysteroid dehydrogenase 1; test: Inhibition of human 11beta-HSD1 expressed in HEK293 cell lysates at 200 uM using [1,2-3H]-cortisone as substrate preincubated for 10 mins followed by substrate addition in presence of NADPH by scintillation counting relative to control
Target sequence in this assay (P28845 whole entry, looked up): as the sequence (P28845 whole entry) above

[6] = Half life in human plasma at 1 uM up to 150 mins by LC-MS/MS analysis; type: ADME, cell-free
[7] = target: T4, 11-beta-hydroxysteroid dehydrogenase type 2; test: Inhibition of human 11beta-HSD2 expressed in HEK293 cell lysates at 200 uM using [1,2,6,7-3H]-cortisol as substrate preincubated for 10 mins followed by substrate addition in presence of NAD by scintillation counting relative to control; parameters: species or system Lysate
[8] = Cytotoxicity against human epidermal keratinocytes assessed as cell viability at 11 uM after 72 hrs by MTT assay relative to control; parameters: species or system Keratinocyte; conditions: read-out: Activity
Salmonella typhimurium [9] = test: Mutagenicity in Salmonella typhimurium TA7001/7002/7003/7004/7005/7006 up to 100 uM in presence of rat liver S9 fraction by Ames 2 assay; type: toxicity, organism-based; conditions: salmonella enterica subsp. enterica serovar typhimurium
Salmonella typhimurium [10] = test: Mutagenicity in Salmonella typhimurium TA7001/7002/7003/7004/7005/7006 up to 100 uM in absence of rat liver S9 fraction by Ames 2 assay; type: toxicity, organism-based; conditions: salmonella enterica subsp. enterica serovar typhimurium
Salmonella typhimurium [11] = test: Mutagenicity in Salmonella typhimurium TA98 up to 100 uM in presence of rat liver S9 fraction by Ames 2 assay; type: toxicity, organism-based; conditions: salmonella enterica subsp. enterica serovar typhimurium
Salmonella typhimurium [12] = test: Mutagenicity in Salmonella typhimurium TA98 up to 100 uM in absence of rat liver S9 fraction by Ames 2 assay; type: toxicity, organism-based; conditions: salmonella enterica subsp. enterica serovar typhimurium
Zone of skin [13] = test: Induction of wound healing in human skin explant assessed as re-epithelialization at 5 uM administered topically for 3 days measured on day 1 post administration by hematoxylin-eosin-saffron staining based microscopic analysis (reference value: 13 +/- 7%); type: functional
Zone of skin [14] = test: Induction of wound healing in human skin explant assessed as re-epithelialization at 5 uM administered topically for 3 days measured on day 2 post administration by hematoxylin-eosin-saffron staining based microscopic analysis (reference value: 28 +/- 2%); type: functional
Zone of skin [15] = test: Induction of wound healing in human skin explant assessed as re-epithelialization at 5 uM administered topically for 3 days measured on day 3 post administration by hematoxylin-eosin-saffron staining based microscopic analysis relative to control; type: functional
[16] = target: T5, 11-beta-hydroxysteroid dehydrogenase 1; test: Inhibition of human 11beta-HSD1 expressed in HEK293 cell lysates at 50 uM using [1,2-3H]-cortisone as substrate preincubated for 10 mins followed by substrate addition in presence of NADPH by scintillation counting relative to control
Target sequence in this assay (P28845 whole entry, looked up): as the sequence (P28845 whole entry) above

Row | IC50 [1] [µM] | inhibition at 0.35 h, 2 µM (CYP19A1 (aromatase)) [%] | half-life at 1 µM [2] [min] | inhibition at 0.75 h, 2 µM (CYP17A1) [%] | inhibition [5] [%] | inhibition (INH) [7] | Compound | further results
1 | 0.12 | – | – | – | – | – | Oc1cncc(Cc2cc(-c3ccccc3)no2)c1 | –
2 | 0.017 | 0 | 33 | 10 | – | – | Cn1nc(-c2ccccc2)cc1Cc1cncc(O)c1 | inhibition (INH) [3]: Not Active; IC50 [4]: 1.62 µM
3 | 0.077 | – | – | – | – | – | Oc1cncc(Cc2cnc(-c3ccccc3)s2)c1 | –
4 | 0.0008 | 2 | 19 | 5 | 48 | Not Active | COc1cncc(Cc2ccc(-c3ccccc3F)nc2)c1 | half-life at 1 µM [6]: > 150 min; viability at 72 h, 11 µM [8]: 87%; Activity (Salmonella typhimurium [9]): Non-Toxic; Activity (Salmonella typhimurium [10]): Non-Toxic; Activity (Salmonella typhimurium [11]): Non-Toxic; Activity (Salmonella typhimurium [12]): Non-Toxic; Activity (Zone of skin [13]): 10%; Activity (Zone of skin [14]): 89%; Activity (Zone of skin [15]): 98%
5 | 0.029 | 1 | 21 | – | – | – | Oc1cncc(Cc2ccc(-c3ccccc3F)nc2)c1 | –
6 | – | 0 | 49 | – | 70 | Not Active | CC(C)(C(=O)c1cccnc1)c1cccnc1 [METYRAPONE] | inhibition [16]: 54%
